Each structure is given as a SMILES string.

One experiment concerns pMel-1 CD8 T cells. The class given is cell-based. To be noted: gp100-activated; for percentage of CD44hiCD62Lhi TCM CD8 T cell population: 48 h of treatment, for PARPi concentration-dependent. The protocol: For ACT experiments, CD8+ T cells from pMel-1 mice were activated with gp100 peptide with and without PARPi for 48 h. Based on their CD44 and CD62L expression, cells were sorted by FACS and transferred into 9-day-old B16F10 melanoma-bearing mice tumor-bearing mice (1×10^6 cells per mouse). Tumor growth and survival of mice were monitored.
A total of 0.1-0.2×10^6 cells per sample were stained for Live/Dead staining followed by fixation and permeabilization. […] CD8^+ T cells from tumor samples were stained similarly. Data acquisition was performed on a BD LSR II flow cytometer using the software FACS Diva v.9.0. Results were analyzed using FlowJo software (TreeStar). […]

A further experiment relates to human CD8 T cells. As to the kind of experiment: In vitro-activated human CD8+ T cells, memory characteristics. The class given is cell-based. To be noted: anti-CD3/CD28 coupled beads for 72 h. The protocol: For evaluation of memory characteristics in human CD8+ T cells, naive CD8+ T cells were activated in the presence or absence of PARPi, by Dynabeads™ Human T-Activator CD3/CD28 (Thermo Fisher #11131), […]. Post-activation cells were gated upon CD8^+ T cell population and various characteristics were investigated as described in the Examples below.
A total of 0.1-0.2×10^6 cells per sample were stained for Live/Dead staining followed by fixation and permeabilization. For IFNγ and granzyme B (Gzm B) staining, BD Cytofix/Cytoperm (catalog no. 51-2090KZ) and BD Perm/Wash (catalog no. 51-2091KZ) buffer set were used according to the manufacturer's instructions (BD Pharmingen). CD8^+ T cells from tumor samples were stained similarly. Data acquisition was performed on a BD LSR II flow cytometer using the software FACS Diva v.9.0. Results were analyzed using FlowJo software (TreeStar). MitoFM, a green-fluorescent mitochondrial stain, which localizes to mitochondria, was used as described previously (Sukumar et al., Cell Metab 23 (1): 63-76, 2016).
To this end, human naïve CD8 T cells were activated with anti-CD3/CD28 coupled beads for 72 h.

For `NC(=O)c1cccc2cn(-c3ccc([C@@H]4CCCNC4)cc3)nc12` [Niraparib], the “percentage of CD44hiCD62Lhi TCM CD8 T cell population” value in the experiment with pMel-1 CD8 T cells is given as “significantly increased”.
For `Cn1ncnc1[C@H]1c2n[nH]c(=O)c3cc(F)cc(c23)N[C@@H]1c1ccc(F)cc1` [Talazoparib], in the experiment on pMel-1 CD8 T cells (48 h), the “expression of IFNγ and Gzm B in CD44hiCD62Lhi CD8 T cells” value is on record as “significantly increased”. The “percentage of CD44hiCD62Lhi TCM CD8 T cell population” value in the experiment with pMel-1 CD8 T cells is on record as “significantly increased”. Further, in the experiment on human CD8 T cells, the IFNγ expression entry is recorded as “significant increase”, the “number of CD45ROhiCCR7hi cells” value is “significant increase” and the “number of CD45ROhiCD62Lhi cells” value is listed as “significant increase”.

These data come from patent US20260286302A1, “METHODS FOR PRODUCING A SUPER CENTRAL MEMORY CD8 T CELL SUBTYPE BY POLY(ADP-RIBOSE) POLYMERASE (PARP) INHIBITION AND USES THEREOF” (Georgetown University, priority 2023, published 2026).
